1 compound from US7339042B2, “Gene delivery to tumors” (University of Florida Research Foundation, Inc., priority 2003, dated 2008) can be followed below.

The subject of assay [1] is endothelial cells and smooth muscle cells of rat cerebral arteries. The assay is described as follows: Uptake of fluorescent peptides by pressure-mounted rat cerebral arteries. Type of assay: cell-based. As to conditions: extraluminal addition.
A further assay concerns rat cerebral arteries. Nature of the assay: Vasodilation and vasoconstriction response of rat cerebral arteries before and after peptide. The format is cell-based. The conditions noted are these: after vs before intraluminal peptide. The protocol: The blood vessels were put in culture described above and perfused with buffer of the same composition as cerebrospinal fluid. Vessel diameter was measured before and after administration of each reagent. 3 μM of each peptide was perfused through for 10 minutes followed by a 10 minute wash through. Vasoconstriction and vasodilation were determined for each vessel before peptide was applied. Perfusion was continued until the vessels relaxed to their original diamter (approximately 30 minutes). The vasoconstriction and vasodilation reponse was remeasured after the 10 minute wash through. The 60 mM KCl and 16 mM KCl conditions are […], respectively. Histamine and Bradykinin are endothelial cell vasodilators.
(§1) In some experiments, the arterial segments were denuded of endothelium by passing an air bubble through the lumen, thus exposing the smooth muscle cells to luminally administered peptides. Constriction to pressure and 60 mM KCl and dilation of arteries with myogenic tone to 16 mM KCl were used as benchmarks of functional arteries. Peptide containing PCSF was perfused intraluminally at an inlet pressure of 70 mmHg with the outlet open, for 20 min and then perfused with normal PCSF. This procedure ensures a 20 min of exposure of the arteries to the peptide.
Effect of peptide on endothelial and smooth muscle function was evaluated by histamine (0.3 and 1 μM) and bradykinin (0.5 μM) (endothelium-dependent vasodilators) and 16 and 60 mM KCl (results in dilation and constriction of arteries by hyperpolarizing and depolarizing smooth muscle, respectively). These drug solutions were added to the superfusate and applied to the arteries extraluminally for 10 to 15 min before and after intraluminal perfusion with peptides. Effects of these agents were expressed as percent change in myogenic tone (decrease for dilators and increase for constrictors). Experiments were concluded by exposing the arteries to calcium free PCSF to obtain the passive diameter. Cell viability was determined by adding H3334 (Hoechst viability stain, final concentration 1 μM) and propidium iodide (final concentration 1 μM) to the arteriograph after the peptide incubation. Fluorescent micrographs were taken of the vessels after incubation with peptides and following addition of the vital stains using Till Photonics imaging system (Martinsried, Germany).

Assay [2] deals with endothelial cells and smooth muscle cells of rat cerebral arteries. Nature of the assay: Uptake of fluorescent peptides by pressure-mounted rat cerebral arteries. Type of assay: cell-based. The conditions noted are these: intraluminal perfusion of fluorescent peptide. The protocol: Tat-P16 peptides were prepared and labeled with fluorescein for use in uptake studies using intact blood vessels isolated from rat brain. Blood vessels were dissected from rat brain and stabilized in an isolated perfusion system in which vessels were attached on either end to catheters and placed under physiological pressure. Following a 10 minute perfusion of the isolated vessels with flurorescent Tat-P16 peptide (1 μM), vessels were examined for uptake of the peptides. […] Within the endothelial cells, the labeled peptides were seen to be localized to the cell nuclei, further confirming uptake of the peptides by the cells.
The peptides are fairly labile in the media and approximately 50% are degraded upon incubation at 37° C. in complete media (qualitative analysis by PAGE) after 1 hour. […] Uptake of these peptides and cell killing activity was tested in a 3 dimensional organ culture using rat cerebral arteries cultured under physiological pressure and flow. A segment of the rat cerebral artery is surgically removed and placed in ringer's solution. Using a surgical stereoscope, the blood vessel is tied at either end to two cannulas on a teflon stage. Ringer's solution is perfused through the lumen of the vessel at a constant rate that maintains physiologic hydrostatic pressure. The fluorescent peptide was introduced intraluminally by perfusing a 1 μM solution of peptide through the lumen over a 10 minute period.
Rats were anesthetized by intraperitoneal injection of pentobarbital sodium (160 mg/kg) and killed by decapitation. The brain was removed and placed in an ice-cold oxygenated physiological cerebrospinal fluid (PCSF, see below for composition). Cerebellar arteries were isolated and mounted in an arteriograph as described previously (Knot and Nelson 1998). The arteriograph was placed on an inverted microscope and the artery was visualized with a monochrome CCD camera coupled to a calibrated video caliper system to measure arterial diameter. The arteries were slowly pressurized to 70 mmHg under no flow conditions using a pressure servo-null system (Living Systems Inc., Burlington Vt.), and warmed to 37° C. while being continuously superfused (5 ml/min) with PCSF bubbled with 21% O2, 5% CO2, 74% N2 (pH 7.35-7.40 in the bath). […] Myogenic tone is calculated by the following equation: Myogenic tone=(Dp−Da)/Dp×100
as §1

A further assay concerns RG2 cells. Nature of the assay: Kinetic uptake studies of fluorescent peptides. The format is cell-based, rat. The protocol:
A172 cells, T98G cells and RG2 cells were purchased from ATCC. Cells were cultured under standard conditions. For cell uptake studies, each cell type was plated in 6 well plates at 5×10^5 cells per well 24 hours before the experiment. Increasing concentration of fluorescent peptides from 0.5 μM to 10 μM was prepared in complete medium. Cells were incubated with each concentration for 5, 10, 20 and 30 minutes at 37° C. followed by removal and washing of cells with 4° C. PBS 3×. Cells were solubilized in 0.2 ml 1% TX-100, PBS, pH 7.4. Fluorescence was measured using a fluorescent plate reader. Concentrations were determined by standard curve and normalized to μg of cellular protein.
A172, T98G and RG2 cells were plated in 6 well plates and incubated with 1, 2.5, 5 and 10 uM fluorescein labeled peptides for 5, 15, 30 and 60 minutes. Cells were washed 3× with PBS, removed from the plates with trypsin, centrifuged for 2 minutes at 2K rpm in a desk top centrifuge, supernatants discarded and the cell pellets were solubilized in 1% TX-100, PBS, pH 7.4. Fluorescence was measured in a Perkin Elmer fluorimeter using ˜ex=480 nm and ˜em=520 nm with a 510 nm cut off filter. Amount of cell-associated protein was determined from the standard curve.
This peptide was further characterized with regard to dose response. […]

With `C[C@H](N)C(=O)NCC(=O)NCC(=O)NCC(=O)N[C@@H](Cc1ccc(O)cc1)C(=O)NCC(=O)N[C@@H](CCCNC(=N)N)C(=O)N[C@@H](CCCCN)C(=O)N[C@@H](CCCCN)C(=O)N[C@@H](CCCNC(=N)N)C(=O)N[C@@H](CCCNC(=N)N)C(=O)N[C@@H](CCC(N)=O)C(=O)N[C@@H](CCCNC(=N)N)C(=O)N[C@@H](CCCNC(=N)N)C(=O)N[C@@H](CCCNC(=N)N)C(=O)O` [Tat], the “labeling of smooth muscle cells” value in assay [1] is recorded as “able to label the smooth muscle cells”. Also, in the assay with rat cerebral arteries, the “endothelium-dependent dilation to histamine and bradykinin” value is recorded as “responsive to all stimuli”; the “smooth muscle response to 60 and 16 mM KCl” value is “responsive to all stimuli”. In assay [2], the “labeling/uptake by endothelial cells” value is on record as “selectively labeling the endothelial nuclei” and the “labeling/uptake by smooth muscle cells” value was “did not label the smooth muscle cells”. Besides, the uptake rate result with RG2 cells is recorded as “more rapid uptake than TatP14ARF”.
